From ChEMBL document CHEMBL1201862, “PubChem BioAssay data set” (2004)
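Five concentrations, 48 hours, 96-well plates. GI50 = concentration required for 50% inhibition of growth.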 The source made the active and inactive calls. Rule as the data show it: active = GI50 up to about 1.1 µM and inactive = higher.

Experiments:
Assay in all cases: NCI anticancer screen, dose series, 48 h
A549 = tested on: A549
CAKI-1 = tested on: CAKI-1
RXF 393 = tested on: RXF 393
TK-10 = tested on: TK-10
K562 = tested on: K562
RPMI-8226 = tested on: RPMI-8226
HCT-15 = tested on: HCT-15
MOLT-4 = tested on: MOLT-4
LOX IMVI = tested on: LOX IMVI
NCI-H460 = tested on: NCI-H460
NCI-H226 = tested on: NCI-H226
U-251 = tested on: U-251
OVCAR-3 = tested on: OVCAR-3
OVCAR-4 = tested on: OVCAR-4
OVCAR-5 = tested on: OVCAR-5
OVCAR-8 = tested on: OVCAR-8
MDA-N = tested on: MDA-N
MCF7 = tested on: MCF7
DU-145 = tested on: DU-145
BT-549 = tested on: BT-549

Structure (SMILES) | GI50 (A549) | GI50 (CAKI-1) | GI50 (RXF 393) | GI50 (TK-10) | GI50 (K562) | GI50 (RPMI-8226) | GI50 (HCT-15) [µM] | GI50 (MOLT-4) | GI50 (LOX IMVI) | GI50 (NCI-H460) | GI50 (NCI-H226) | GI50 (U-251) | GI50 (OVCAR-3) | GI50 (OVCAR-4) | GI50 (OVCAR-5) | GI50 (OVCAR-8) | GI50 (MDA-N) | GI50 (MCF7) | GI50 (DU-145) | GI50 (BT-549)
CCOC(=O)C1C(c2ccc(Cl)cc2Cl)NC(c2ccc(C)cc2)C(C(=O)OC)S1(=O)=O (configuration not stated) | 37.8 µM (inactive) | > 100 µM (inactive) | > 100 µM (inactive) | > 100 µM (inactive) | 13.3 µM (inactive) | 74.3 µM (inactive) | 59.2 | 5.46 µM (inactive) | 81.5 µM (inactive) | 37.7 µM (inactive) | 76.4 µM (inactive) | > 100 µM (inactive) | > 100 µM (inactive) | > 100 µM (inactive) | > 100 µM (inactive) | > 100 µM (inactive) |  |  |  | 
C#CCOCn1ccc(=O)[nH]c1=O | > 100 µM (inactive) | > 100 µM (inactive) |  | > 100 µM (inactive) | > 100 µM (inactive) | > 100 µM (inactive) | > 100 | > 100 µM (inactive) | > 100 µM (inactive) | > 100 µM (inactive) | > 100 µM (inactive) | > 100 µM (inactive) |  | > 100 µM (inactive) | > 100 µM (inactive) | > 100 µM (inactive) | > 100 µM (inactive) | > 100 µM (inactive) | > 100 µM (inactive) | 
COc1ccc2nc3cc(Cl)ccc3c(NCCC[N+](C)(C)CCCCCCCCCCCCCCCC[N+](C)(C)CCCNc3c4ccc(Cl)cc4nc4ccc(OC)cc34)c2c1 | 3.12 µM (inactive) | 10.6 µM (inactive) | 2.84 µM (inactive) | 4.22 µM (inactive) | 1.85 µM (inactive) | 1.47 µM (inactive) | 5.85 | 1.43 µM (inactive) | 1.96 µM (inactive) | 1.68 µM (inactive) | 3.94 µM (inactive) | 2 µM (inactive) | 4.81 µM (inactive) | 2.44 µM (inactive) | 2.92 µM (inactive) | 3.15 µM (inactive) |  |  |  | 
COc1ccc2c(c1)[n+]([O-])c(/C(C)=N/NC(=O)c1ccccc1O)c(C)[n+]2[O-] | > 100 µM (inactive) | > 100 µM (inactive) | > 100 µM (inactive) | > 100 µM (inactive) | > 100 µM (inactive) | > 100 µM (inactive) | > 100 | > 100 µM (inactive) | > 100 µM (inactive) | > 100 µM (inactive) | > 100 µM (inactive) | > 100 µM (inactive) | > 100 µM (inactive) | > 100 µM (inactive) | > 100 µM (inactive) | 97.9 µM (inactive) |  |  |  | 
O=C(NCCCCCCCCCCCCNC(=O)c1cccc2ccccc12)c1cccc2ccccc12 | > 68.5 µM (inactive) | 23.3 µM (inactive) | > 100 µM (inactive) | > 52.7 µM (inactive) | > 100 µM (inactive) | > 100 µM (inactive) | > 100 | > 100 µM (inactive) | > 84.9 µM (inactive) | > 90.8 µM (inactive) | > 49.9 µM (inactive) | > 36.7 µM (inactive) | > 45.9 µM (inactive) | 6.24 µM (inactive) | > 100 µM (inactive) | 31.5 µM (inactive) |  |  |  | 
O=C(CCc1ccccc1CO)NCCc1ccccc1 | > 100 µM (inactive) | > 100 µM (inactive) | > 100 µM (inactive) | > 100 µM (inactive) | > 100 µM (inactive) | > 100 µM (inactive) | > 100 | > 100 µM (inactive) |  | > 100 µM (inactive) | > 100 µM (inactive) | > 100 µM (inactive) | > 100 µM (inactive) | 59.6 µM (inactive) | > 100 µM (inactive) | > 100 µM (inactive) |  | > 100 µM (inactive) | > 100 µM (inactive) | > 100 µM (inactive)
NN/C(=N\S(=O)(=O)c1cc2ccccc2s1)Nc1ccc(Cl)cc1 | 19.4 µM (inactive) | 18.5 µM (inactive) | 15.5 µM (inactive) | 23 µM (inactive) | 13.3 µM (inactive) | 16 µM (inactive) | 30.5 | 18.9 µM (inactive) | 20.8 µM (inactive) | 18.5 µM (inactive) | 19.3 µM (inactive) | 17.7 µM (inactive) | 18.9 µM (inactive) | 17.5 µM (inactive) | 21.1 µM (inactive) | 22.4 µM (inactive) |  | 20.2 µM (inactive) | 17.8 µM (inactive) | 18.9 µM (inactive)
Cc1cc2c(c(C)c1O)C(C)(C)CN2C(=O)C(C)(C)C | > 100 µM (inactive) |  | 22.7 µM (inactive) | > 100 µM (inactive) | 41.5 µM (inactive) | > 100 µM (inactive) | > 100 | 59.4 µM (inactive) | > 100 µM (inactive) | > 100 µM (inactive) | 26.1 µM (inactive) | > 100 µM (inactive) | 14.4 µM (inactive) | 54.1 µM (inactive) | > 100 µM (inactive) | > 100 µM (inactive) | > 100 µM (inactive) | > 100 µM (inactive) | > 100 µM (inactive) | 
O=C(C(Cl)=C(Nc1ccccc1)Nc1ccccc1)C(Cl)Cl | 38.5 µM (inactive) | 18.8 µM (inactive) | 14.6 µM (inactive) | 40.3 µM (inactive) | 25.3 µM (inactive) | 29.6 µM (inactive) | 11 | 16 µM (inactive) | 13.2 µM (inactive) | 25.1 µM (inactive) | 39.1 µM (inactive) |  | 23 µM (inactive) | 36.1 µM (inactive) |  | 17.3 µM (inactive) |  | 23.9 µM (inactive) | 51.2 µM (inactive) | 37.2 µM (inactive)
N#Cc1cccc2c1Nc1ccccc1S2 | > 100 µM (inactive) | > 100 µM (inactive) | 32.2 µM (inactive) | > 100 µM (inactive) | > 100 µM (inactive) | > 100 µM (inactive) | > 100 | > 100 µM (inactive) | > 100 µM (inactive) | > 100 µM (inactive) | 19.1 µM (inactive) | 92.7 µM (inactive) | > 100 µM (inactive) | > 100 µM (inactive) | > 100 µM (inactive) | 79.3 µM (inactive) |  |  |  | 
Cc1ccc2c(c1)Nc1cc(C(F)(F)F)ccc1[PH]2=O (configuration not stated) | 30.4 µM (inactive) | 47.4 µM (inactive) | 23.2 µM (inactive) | 57.9 µM (inactive) | 13.1 µM (inactive) |  | 43.6 | 11 µM (inactive) | 26.1 µM (inactive) | 27.7 µM (inactive) | 21.3 µM (inactive) | 27.2 µM (inactive) | 30 µM (inactive) | 11.6 µM (inactive) | 50.2 µM (inactive) | 63.5 µM (inactive) | 41.2 µM (inactive) | 9.59 µM (inactive) | 45.6 µM (inactive) | 
Cc1cccc(NS(=O)(=O)c2ccc(/N=N/c3c(O)c(C(=O)O)cc4ccccc34)cc2)n1 | > 100 µM (inactive) | > 100 µM (inactive) | > 100 µM (inactive) | > 100 µM (inactive) | > 100 µM (inactive) | > 100 µM (inactive) | > 100 | > 100 µM (inactive) |  | > 100 µM (inactive) | > 100 µM (inactive) | > 100 µM (inactive) | > 100 µM (inactive) | > 100 µM (inactive) | > 100 µM (inactive) | > 100 µM (inactive) |  | > 100 µM (inactive) |  | > 100 µM (inactive)
COc1c(I)c(OC)c2c(c1I)O[C@@H]1OCC[C@H]21 | 34 µM (inactive) | 0.098 µM (active) | 37.4 µM (inactive) | 40.6 µM (inactive) | 41.2 µM (inactive) | 19.7 µM (inactive) | 35.6 | 20 µM (inactive) | 32.4 µM (inactive) | 20.2 µM (inactive) | 23.6 µM (inactive) | 37.6 µM (inactive) | 27.7 µM (inactive) | 23.6 µM (inactive) | 41.1 µM (inactive) | 33 µM (inactive) |  |  |  | 
COc1cccc(/C=C2\CCCc3ccccc3C2=O)c1 | 23 µM (inactive) | 23.4 µM (inactive) |  | 26.4 µM (inactive) | 16.1 µM (inactive) | 6.35 µM (inactive) | 10.9 | 19.4 µM (inactive) | 17.4 µM (inactive) | 14.5 µM (inactive) | 18.8 µM (inactive) | 15 µM (inactive) | 17.1 µM (inactive) | 13.5 µM (inactive) | 15.3 µM (inactive) | 19.2 µM (inactive) |  | 13.6 µM (inactive) | 19.1 µM (inactive) | 16.2 µM (inactive)
Cc1ccc(S(=O)(=O)NC(=O)C#CCOC2CCCCO2)cc1 (configuration not stated) | > 100 µM (inactive) | > 100 µM (inactive) | > 100 µM (inactive) | > 100 µM (inactive) | > 100 µM (inactive) | > 100 µM (inactive) | > 100 | > 100 µM (inactive) | > 100 µM (inactive) | > 100 µM (inactive) | > 100 µM (inactive) | > 100 µM (inactive) | > 100 µM (inactive) | > 100 µM (inactive) | > 100 µM (inactive) | > 100 µM (inactive) |  |  |  | 
C1=C(c2ccccc2)Nc2nnnn2C1c1ccccc1 (configuration not stated) | 44.5 µM (inactive) | 47.6 µM (inactive) | 16.7 µM (inactive) | 28.6 µM (inactive) | 21.4 µM (inactive) | < 0.01 µM (active) | 15.3 | 22 µM (inactive) | 17.3 µM (inactive) | 34 µM (inactive) | 47.4 µM (inactive) | 18.6 µM (inactive) | > 100 µM (inactive) |  | 93.3 µM (inactive) | 34.9 µM (inactive) | 20.1 µM (inactive) | 7.66 µM (inactive) | 26.9 µM (inactive) | 
